Entries after “also recorded” stand apart in the source; their conditions may differ. Like-named read-outs stand apart in the source and are kept apart here.
What was measured:
AChE [1] = biological target: AChE (Electrophorus electricus, UniProt O42275); settings: Lineweaver-Burk plot
Description: The plots were assessed by a weighted least-squares analysis that assumed the variance of velocity (v) to be a constant percentage of v for the entire data set.

BuChE = settings: cited from earlier work
AChE [2] = settings: cited from earlier work

AChE (Electrophorus electricus, UniProt O42275), sequence (O42275 24-633): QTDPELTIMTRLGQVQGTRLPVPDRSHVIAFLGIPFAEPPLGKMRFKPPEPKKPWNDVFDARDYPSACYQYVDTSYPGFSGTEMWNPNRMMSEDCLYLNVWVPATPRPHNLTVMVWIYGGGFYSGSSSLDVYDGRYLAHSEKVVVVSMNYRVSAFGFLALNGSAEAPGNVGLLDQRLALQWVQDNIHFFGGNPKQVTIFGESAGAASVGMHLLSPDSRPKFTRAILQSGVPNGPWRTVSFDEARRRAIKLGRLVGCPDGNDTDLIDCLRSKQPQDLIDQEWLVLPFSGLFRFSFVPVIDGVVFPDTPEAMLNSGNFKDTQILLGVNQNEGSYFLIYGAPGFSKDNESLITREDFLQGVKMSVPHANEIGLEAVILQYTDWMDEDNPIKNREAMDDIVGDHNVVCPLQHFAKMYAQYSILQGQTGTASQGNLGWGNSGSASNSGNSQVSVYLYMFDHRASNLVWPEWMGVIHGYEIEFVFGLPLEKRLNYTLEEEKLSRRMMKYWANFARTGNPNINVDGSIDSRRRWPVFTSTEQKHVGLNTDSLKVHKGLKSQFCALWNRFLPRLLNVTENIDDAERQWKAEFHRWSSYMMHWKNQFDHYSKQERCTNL

Compound | IC50 (BuChE) [µM] | IC50 (AChE [2]; authors' previous work) [µM] | also measured
CCN(CC)CC(=O)Nc1nc(-c2cc3ccccc3oc2=O)cs1 [Compound 6c, 2-(Diethylamino)-N-(4-(2-oxo-2H-chromen-3-yl)thiazol-2-yl)acetamide] | – | – | type of AChE inhibition (AChE [1]): mixed-type inhibitor; also recorded: mixed-type inhibition
COc1cccc2cc(-c3csc(NC(=S)Nc4ccc(Cl)cc4)n3)c(=O)oc12 [PBI-2] | – | 4.58 | –
O=C(Nc1nc(-c2cc3cc(Br)ccc3o2)cs1)Nc1ccccc1F [PBI-1] | – | 3.85 | –

From PMC6010140, “Design, synthesis and docking study of novel coumarin ligands as potential selective acetylcholinesterase inhibitors” (Journal of Enzyme Inhibition and Medicinal Chemistry, 2017)
